Test results: patent publication US11932639B2, “Fused ring heteroaryl compounds as ALK4/5 inhibitors” (BiSiChem Co., Ltd., priority 2019, dated 2024)
pIC50: −log10 of the molar value.

Biological target: T1, ALK5 (Homo sapiens, UniProt P36897)
T1 construct: endogenous in cells; host or cells: Hs578T (ATCC HTB-22), inferred as the cells of the reporter assay
T1 sequence (P36897 34-503): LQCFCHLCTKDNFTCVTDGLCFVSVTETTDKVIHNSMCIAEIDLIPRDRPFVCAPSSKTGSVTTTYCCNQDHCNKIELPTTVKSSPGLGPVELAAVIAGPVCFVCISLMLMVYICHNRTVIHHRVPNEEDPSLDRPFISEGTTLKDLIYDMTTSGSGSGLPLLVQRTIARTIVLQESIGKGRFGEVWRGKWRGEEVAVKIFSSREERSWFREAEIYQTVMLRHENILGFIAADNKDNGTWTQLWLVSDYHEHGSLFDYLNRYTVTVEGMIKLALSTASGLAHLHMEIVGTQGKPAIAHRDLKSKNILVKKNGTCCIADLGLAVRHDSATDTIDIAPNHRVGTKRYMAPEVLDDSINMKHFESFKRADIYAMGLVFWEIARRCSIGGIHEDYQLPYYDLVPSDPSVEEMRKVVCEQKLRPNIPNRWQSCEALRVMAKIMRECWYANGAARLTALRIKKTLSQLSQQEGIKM
Experiment: Cell-based luciferase reporter assay for ALK5 activity
Conditions: (CAGA)-12-luciferase reporter, Smad 2/3-responsive promoter, 2 ng/ml TGF-β1 stimulation for 12 hours; read-out: Relative luciferase activity: IC50 value
Method: Human cancer cell lines Hs578T (ATCC® HTB-22™) cells were grown in DMEM (Dulbecco's modified Eagle's medium) supplemented with 10% fetal bovine serum and 1% mixture of penicillin and streptomycin (Gibco). Cells were maintained at 37° C. in a humidified 5% CO2 atmosphere.
Cell-Based Luciferase Reporter Assay for ALK5 Activity
Cells were seeded at 3×10^4/well in 24-well plates were transiently transfected with 500 ng of (CAGA)-12-luciferase reporter construct and 5 ng of pRL-TK Renilla luciferase vector (Promega, Madison, WI), an internal control for transfection efficiency, using Lipofectamine 3000 reagent (Thermo Fisher Scientific, Waltham, USA). After 24 h transfection, the cells were pre-treated with ALK5 inhibitor in dose-dependent manner. And then, Cells stimulated with 2 ng/ml recombinant TGF-β1 for 12 hours. After the stimulation, the firefly and Renilla luciferase activities were measured by Dual-Luciferase Repoter Assay (Promega).

`Cc1cccc(-c2[nH]c(NC(C)c3ccccc3F)nc2-c2ccn3ncnc3c2)n1` (stereo not drawn) [Example 27, 4-([1,2,4]tiazolo[1,5-a]pyridin-7-yl)-N-(1-(2-fluorophenyl)ethyl)-5-(6-methylpyridin-2-yl)-1H-imidazol-2-amine] and `Cc1cccc(-c2[nH]c(NCc3ccccc3F)nc2-c2ccn3ncnc3c2)n1` [Example 11, 4-([1,2,4]triazolo[1,5-a]pyridin-7-yl)-N-(2-fluorobenzyl)-5-(6-methylpyridin-2-yl)-1H-imidazol-2-amine] fall in the same range of pIC50: 7.00 to 8.00 for the first, 7.00 to 8.00 for the second.

Compared with `Cc1cccc(-c2[nH]c(NCc3cccc(Cl)c3F)nc2-c2ccn3ncnc3c2)n1` [Example 18, 4-([1,2,4]triazolo[1,5-a]pyridin-7-yl)-N-(3-chloro-2-fluorobenzyl)-5-(6-methylpyridin-2-yl)-1H-imidazol-2-amine], `Cc1cccc(-c2[nH]c(NCc3cccc(F)c3F)nc2-c2ccn3ncnc3c2)n1` [Example 15, 4-([1,2,4]triazolo[1,5-a]pyridin-7-yl)-N-(2,3-difluorobenzyl)-5-(6-methylpyridin-2-yl)-1-imidazol-2-ylamine] is lower in pIC50: > 8.00 for the first, 7.00 to 8.00 for the second. The first is the more potent here.

`Cc1cccc(-c2[nH]c(CNc3ccc(Cl)c(Cl)c3)nc2-c2ccn3ncnc3c2)n1` [Example 5, N-((4-([1,2,4]triazolo[1,5-a]pyridin-7-yl)-5-(6-methylpyridin-2-yl)-1H-imidazol-2-yl)methyl)-3,4-dichloroaniline] and `Cc1cccc(-c2[nH]c(NCc3ccc(Cl)c(Cl)c3)nc2-c2ccn3ncnc3c2)n1` [Example 20, 4-([1,2,4]triazolo[1,5-a]pyridin-7-yl)-N-(3,4-dichlorobenzyl)-5-(6-methylpyridin-2-yl)-1H-imidazol-2-amine] cannot be ordered by pIC50: > 8.00 for the first, > 8.00 for the second.

First: Cc1cccc(-c2[nH]c(NCc3cccc(Cl)c3F)nc2-c2ccn3nccc3c2)n1 [Example 8, N-(3-chloro-2-fluorobenzyl)-5-(6-methylpyridin-2-yl)-4-(pyrazolo[1,5-a]pyridin-5-yl)-1H-imidazol-2-amine]
Second: Cc1cccc(-c2[nH]c(NCc3ccc(Cl)cc3F)nc2-c2ccn3nccc3c2)n1 [Example 9, N-(4-chloro-2-fluorobenzyl)-5-(6-methylpyridin-2-yl)-4-(pyrazolo[1,5-a]pyridin-5-yl)-1H-imidazol-2-amine]
The pIC50 of the first is lower: 7.00 to 8.00 for the first, > 8.00 for the second. The second is the more potent here.

First: Cc1cccc(-c2[nH]c(CNc3ccccc3F)nc2-c2ccn3ncnc3c2)n1 [Example 3, N-((4-([1,2,4]triazolo[1,5-a]pyridin-7-yl)-5-(6-methylpyridin-2-yl)-1H-imidazol-2-yl)methyl)-2-fluoroaniline]
Second: Cc1cccc(-c2[nH]c(CNc3cccc(Cl)c3F)nc2-c2ccn3ncnc3c2)n1 [Example 4, N-((4-([1,2,4]triazolo[1,5-a]pyridin-7-yl)-5-(6-methylpyridin-2-yl)-1H-imidazol-2-yl)methyl)-3-chloro-2-fluoroaniline]
The pIC50 of the first is lower: 7.00 to 8.00 for the first, > 8.00 for the second.

`CNC(=O)c1ccc(CNc2nc(-c3ccn4ncnc4c3)c(-c3cccc(C)n3)[nH]2)cc1` [Example 25, 4-((4-([1,2,4]triazolo[1,5-a]pyridin-7-yl)-5-(6-methylpyridin-2-yl)-1H-imidazol-2-ylamino)methyl)-N-methylbenzamide] and `CNC(=O)c1cccc(CNc2nc(-c3ccn4ncnc4c3)c(-c3cccc(C)n3)[nH]2)c1` [Example 24, 3-((4-([1,2,4]triazolo[1,5-a]pyridin-7-yl)-5-(6-methylpyridin-2-yl)-1H-imidazol-2ylamino)methyl)-N-methylbenzamide] cannot be ordered by pIC50: < 7.00 for the first, < 7.00 for the second.

First: Cc1cccc(-c2[nH]c(NCc3ccc(Cl)c(Cl)c3)nc2-c2ccn3nccc3c2)n1 [Example 10, N-(3,4-dichlorobenzyl)-5-(6-methylpyridin-2-yl)-4-(pyrazolo[1,5-a]pyridin-5-yl)-1H-imidazol-2-amine]
Second: Cc1cccc(-c2[nH]c(CNc3ccc(Cl)c(Cl)c3)nc2-c2ccn3nccc3c2)n1 [Example 2, 3,4-dichloro-N-((5-(6-methylpyridin-2-yl)-4-(pyrazolo[1,5-a]pyridin-5-yl)-1H-imidazol-2-yl)methyl)aniline]
The pIC50 of the first is lower: 7.00 to 8.00 for the first, > 8.00 for the second.

`Cc1cccc(-c2[nH]c(NC(=O)c3ccccc3F)nc2-c2ccn3ncnc3c2)n1` [Example 26, N-(4-([1,2,4]triazolo[1,5-a]pyridin-7-yl)-5-(6-methylpyridin-2-yl)-1H-imidazol-2-yl)-2-fluorobenzamide] and `Cc1cccc(-c2[nH]c(NCc3c(F)cccc3F)nc2-c2ccn3ncnc3c2)n1` [Example 16, 4-([1,2,4]triazolo[1,5-a]pyridin-7-yl)-N-(2,6-difluorobenzyl)-5-(6-methylpyridin-2-yl)-1H-imidazol-2-amine] fall in the same range of pIC50: 7.00 to 8.00 for the first, 7.00 to 8.00 for the second.

`Cc1cccc(-c2[nH]c(NCc3cccc(Cl)c3)nc2-c2ccn3ncnc3c2)n1` [Example 13, 4-([1,2,4]triazolo[1,5-a]pyridin-7-yl)-N-(3-chlorobenzyl)-5-(6-methylpyridin-2-yl)-1H-imidazol-2-amine] and `Cc1cccc(-c2[nH]c(NCc3cccc(F)c3)nc2-c2ccn3ncnc3c2)n1` [Example 12, 4-([1,2,4]triazolo[1,5-a]pyridin-7-yl)-N-(3-fluorobenzyl)-5-(6-methylpyridin-2-yl)-1H-imidazol-2ylamine] fall in the same range of pIC50: 7.00 to 8.00 for the first, 7.00 to 8.00 for the second.

`Cc1cccc(-c2[nH]c(CNc3cccc(Cl)c3F)nc2-c2ccn3nccc3c2)n1` [Example 1, 3-chloro-2-fluoro-N-((5-(6-methylpyridin-2-yl)-4-(pyrazolo[1,5-a]pyridin-5-yl)-1H-imidazol-2-yl)methyl)aniline] and `Cc1cccc(-c2[nH]c(NCc3cccc(F)c3)nc2-c2ccn3nccc3c2)n1` [Example 7, N-(3-fluorobenzyl)-5-(6-methylpyridin-2-yl)-4-(pyrazolo[1,5-a]pyridine-5-yl)-1H-imidazol-2-amine] fall in the same range of pIC50: 7.00 to 8.00 for the first, 7.00 to 8.00 for the second.

`Cc1cccc(-c2[nH]c(NCc3ccccc3F)nc2-c2ccn3nccc3c2)n1` [Example 6, N-(2-fluorobenzyl)-5-(6-methylpyridin-2-yl)-4-(pyrazolo[1,5-a]pyridine-5-yl)-1H-imidazol-2-amine] and `Cc1cccc(-c2[nH]c(NCc3cc(Cl)ccc3F)nc2-c2ccn3ncnc3c2)n1` [Example 19, 4-([1,2,4]triazolo[1,5-a]pyridin-7-yl)-N-(5-chloro-2-fluorobenzyl)-5-(6-methylpyridin-2-yl)-1H-imidazol-2-amine] fall in the same range of pIC50: 7.00 to 8.00 for the first, 7.00 to 8.00 for the second.

`COc1ccc(CNc2nc(-c3ccn4ncnc4c3)c(-c3cccc(C)n3)[nH]2)c(F)c1` [Example 23, 4-([1,2,4]triazolo[1,5-a]pyridin-7-yl)-N-(2-fluoro-4-methoxybenzyl)-5-(6-methylpyridin-2-yl)-1H-imidazol-2-amine] and `Cc1cccc(-c2[nH]c(NCc3ccc(Cl)cc3F)nc2-c2ccn3ncnc3c2)n1` [Example 17, 4-([1,2,4]triazolo[1,5-a]pyridin-7-yl)-N-(4-chloro-2-fluorobenzyl)-5-(6-methylpyridin-2-yl)-1H-imidazol-2-amine] fall in the same range of pIC50: 7.00 to 8.00 for the first, 7.00 to 8.00 for the second.

`COc1cccc(CNc2nc(-c3ccn4ncnc4c3)c(-c3cccc(C)n3)[nH]2)c1F` [Example 22, 4-([1,2,4]triazolo[1,5-a]pyridin-7-yl)-N-(2-fluoro-3-methoxybenzyl)-5-(6-methylpyridin-2-yl)-1H-imidazol-2-amine] and `Cc1cccc(-c2[nH]c(NCc3ccc(Cl)cc3Cl)nc2-c2ccn3ncnc3c2)n1` [Example 21, 4-([1,2,4]triazolo[1,5-a]pyridin-7-yl)-N-(2,4-dichlorobenzyl)-5-(6-methylpyridin-2-yl)-1H-imidazol-2-amine] fall in the same range of pIC50: 7.00 to 8.00 for the first, 7.00 to 8.00 for the second.

`Cc1cccc(-c2[nH]c(NCc3ccc(Cl)cc3)nc2-c2ccn3ncnc3c2)n1` [Example 14, 4-([1,2,4]triazolo[1,5-a]pyridin-7-yl)-N-(4-chlorobenzyl)-5-(6-methylpyridin-2-yl)-1H-imidazol-2-amine] was tested, and the pIC50 was > 8.00.
